Some results are limits rather than exact numbers.

Broadly, the IC50 is the concentration that gives 50% inhibition.

The target in the test is HPK1 (Homo sapiens (Human), UniProt Q92918). The test can be described thus: HPK1 biochemical enzyme assay (microfluidic mobility shift assay). The note with it: 1.5 nM HPK1, ATP 1 mM final, 30 min preincubation, 60 min at RT, Caliper EZ Reader; read-out: HPK1 1000UMATP caliper IC50. The method in brief: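 Mobility shift readout of HPK1 activity after a 60 min RT reaction with 1 mM ATP, 1 μM substrate and 5 mM MgCl2. Enzyme/substrate mix was first exposed to compounds for 30 min, using ten-point curves topping at 3 μM final.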
Sequence of HPK1 (Q92918 whole entry): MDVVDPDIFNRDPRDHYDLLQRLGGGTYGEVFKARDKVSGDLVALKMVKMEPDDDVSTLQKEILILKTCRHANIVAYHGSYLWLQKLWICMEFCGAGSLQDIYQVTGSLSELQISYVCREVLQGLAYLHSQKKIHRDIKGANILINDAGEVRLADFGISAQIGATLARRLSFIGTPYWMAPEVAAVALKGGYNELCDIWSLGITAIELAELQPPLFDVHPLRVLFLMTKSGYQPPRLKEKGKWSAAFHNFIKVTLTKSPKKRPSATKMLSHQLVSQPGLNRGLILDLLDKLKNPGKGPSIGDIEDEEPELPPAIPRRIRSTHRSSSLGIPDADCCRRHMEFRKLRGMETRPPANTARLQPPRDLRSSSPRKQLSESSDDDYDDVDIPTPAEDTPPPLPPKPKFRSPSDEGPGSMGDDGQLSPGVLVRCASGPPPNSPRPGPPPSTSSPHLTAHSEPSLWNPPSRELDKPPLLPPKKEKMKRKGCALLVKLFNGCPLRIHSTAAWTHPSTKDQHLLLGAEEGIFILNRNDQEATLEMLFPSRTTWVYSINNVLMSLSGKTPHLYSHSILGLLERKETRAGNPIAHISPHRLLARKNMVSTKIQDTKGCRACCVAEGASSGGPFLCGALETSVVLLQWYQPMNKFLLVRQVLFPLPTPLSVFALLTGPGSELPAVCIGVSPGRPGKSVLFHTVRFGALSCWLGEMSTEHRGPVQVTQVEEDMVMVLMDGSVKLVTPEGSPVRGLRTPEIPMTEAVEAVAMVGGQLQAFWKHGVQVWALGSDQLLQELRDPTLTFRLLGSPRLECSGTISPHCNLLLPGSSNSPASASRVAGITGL
On to `O=C1NCc2c(-c3cnc4cnccn34)ccc(Nc3ccc(N4[C@@H]5CC[C@H]4C[C@@H](O)C5)cn3)c21` [I-304, 7-((5-((1R,3r,5S)-3-hydroxy-8-azabicyclo [3,2.1]octan-8-yl)pyridin-2-yl)amino)-4-(imidazo[1,2-a]pyrazin-3-yl)isoindolin-1-one], for which the IC50 is < 100 nM.

With `O=C1NCc2c(-c3cnc4cnccn34)ccc(Nc3ccc(S(=O)(=O)N4CCC4)cn3)c21` [I-307, 7-((5-(azetidin-1-ylsulfonyl)-pyridin-2-yl)amino)-4-(imidazo[1,2-a]pyrazin-3-yl)isoindolin-1-one], the IC50 lay in the range of 100 to 1000 nM. `Cn1ccc2c(-c3ccc(-n4ccc(N5CCC(O)CC5)n4)c4c3CNC4=O)ccnc21` [I-308, 7-(3-(4-hydroxypiper-idin-1-yl)-1H-pyrazol-1-yl)-4-(1-methyl-1H-pyrrolo[2,3-b)pyridin-4-yl)isoindolin-1-one]: the IC50 was > 1000 nM. For `Cn1ccc2c(-c3ncc(Nc4ccc(N5C[C@@H]6C[C@H]5CO6)cn4)c4c3CNC4=O)ccnc21` [I-309, 7-((5-((1S,4S)-2-oxa-5-azabicyclo[2.2.1]heptan-5-yl)pyridin-2-yl)amino)-4-(1-methyl-1H-pyrrolo[2,3-b]pyridin-4-yl)-2,3-dihydro-1H-pyrrolo[3,4-c]pyridin-1-one], the IC50 is < 100 nM. Turning to `CC(C)(O)[C@H]1CCCN(c2ccc(Nc3ccc(-c4cnc5cnccn45)c4c3C(=O)NC4)nc2)C1` [I-310, (S)-7-((5-(3-(2-hydroxypropan-2-yl)piperidin-1-yl)pyridin-2-yl)amino)-4-(imidazo[1,2-a]pyrazin-3-yl)isoindolin-1-one], the IC50 is < 100 nM. For `CC(C)(O)[C@@H]1CCCN(c2ccc(Nc3ccc(-c4cnc5cnccn45)c4c3C(=O)NC4)nc2)C1` [I-311, (R)-7-((5-(3-(2-hydroxypropan-2-yl)piperidin-1-yl)pyridin-2-yl)amino)-4-(imidazo[1,2-a]pyrazin-3-yl)isoindolin-1-one], the half-maximal inhibitory concentration (IC50) was < 100 nM. As for `O=C1NCc2c(-c3cnc4cnccn34)ccc(Nc3ccc(N4CC5(COC5)C4)cn3)c21` [I-312, 7-((5-(2-oxa-6-azaspiro[3,3]heptan-6-yl)pyridin-2-yl)amino)-4-(imidazo[1,2-a]pyrazin-3-yl)isoindolin-1-one], the IC50 is < 100 nM. For the compound `CC1(O)CCN(c2ccc(Nc3ccc(-c4cnc5cnccn45)c4c3C(=O)NC4)nc2)CC1` [I-313, 7-((5-(4-hydroxy-4-methylpiperidin-1-yl)pyridin-2-yl)amino)-4-(imidazo[1,2-a]pyrazin-3-yl)isoindolin-1-one], the IC50 was < 100 nM. `C[C@H]1COCCN1c1ccc(Nc2ccc(-c3cnc4cnccn34)c3c2C(=O)NC3)nc1` [I-314, (S)-4-(imidazo[1,2-a]pyrazin-3-yl)-7-((5-(3-methylmorpho-lino)pyridin-2-yl)amino)isoin-dolin-1-one]: the IC50 is < 100 nM.

With `O=C1NCc2c(-c3cnc4cnccn34)ccc(Nc3ccc(N4CC(O)C4)cn3)c21` [I-315, 7-((5-(3-hydroxyazeti-din-1-yl)pyridin-2-yl)amino)-4-(imidazo[1,2-a]pyrazin-3-yl)isoindolin-1-one], the IC50 is < 100 nM.

Regarding `C[C@@H]1NC(=O)c2c(Nc3ccc(N4CCC(O)CC4)cn3)ccc(-c3cnc4ccccn34)c21` [I-316, (S)-7-((5-(4-hydroxypip-eridin-1-yl)pyridin-2-yl)amino)-4-(imidazo[1,2-a]pyridin-3-yl)-3-methylisoindo-lin-1-one], the half-inhibitory concentration (IC50) was > 1000 nM. In the case of `C[C@H]1NC(=O)c2c(Nc3ccc(N4CCC(O)CC4)cn3)ccc(-c3cnc4ccccn34)c21` [I-317, (R)-7-((5-(4-hydroxy-piperidin-1-yl)pyridin-2-yl)amino)-4-(imidazo[1,2-a]pyridin-3-yl)-3-methylisoindo-lin-1-one], the IC50 is < 100 nM. As to `O=C1NCc2c(-c3cnc4cnccn34)ccc(Nc3ccc(N4C[C@H]5COC[C@H]5C4)cn3)c21` [I-318, 4-(imidazo[1,2-a]pyrazin-3-yl)-7-((5-((3aR,6aS)-tetrahydro-1H-furo[3,4-c]pyrrol-5(3H)-yl)pyridin-2-yl)amino)isoin-dolin-1-one], the half-maximal inhibitory concentration (IC50) is < 100 nM. Regarding `CC(C)N1CCN(c2ccc(Nc3cnc(-c4ccnc5c4ccn5C)c4c3C(=O)NC4)nc2)CC1` [I-319, 7-((5-(4-isopropylpiperazin-1-yl)pyridin-2-yl)amino)-4-(1-methyl-1H-pyrrolo[2,3-b]pyridin-4-yl)-2,3-dihydro-1H-pyrrolo[3,4-c]pyridin-1-one], the IC50 is < 100 nM. With `O=C1NCc2c(-c3cnc4cnccn34)ccc(Nc3ccc(N4[C@@H]5CC[C@H]4C[C@H](O)C5)cn3)c21` [I-320, 7-((5-((1R,3s,5S)-3-hydroxy-8-azabicyclo [3,2.1]octan-8-yl)pyridin-2-yl)amino)-4-(imidazo[1,2-a]pyrazin-3-yl)isoindolin-1-one], the IC50 is < 100 nM.

Take `O=C1NCc2c(-c3cnc4cc(F)ccn34)ccc(Nc3ccc(S(=O)(=O)CC4CCC4)cn3)c21` [I-321, 7-((5-((cyclobutyl-methyl)sulfonyl)pyridin-2-yl)amino)-4-(7-fluoroimidazo [1,2-a]pyridin-3-yl)isoindolin-1-one]: the IC50 was < 100 nM.

Regarding `O=C1NCc2c(-c3cnc4cc(F)ccn34)ccc(Nc3cccc(N4CC(O)C4)n3)c21` [I-323, 4-(7-fluoroimidazo [1,2-a]pyridin-3-yl)-7-((6-(3-hydroxyazeti-din-1-yl)pyridin-2-yl)amino)isoin-dolin-1-one], the half-inhibitory concentration (IC50) was > 1000 nM. For `O=C1NCc2c(-c3cnc4cnccn34)ccc(Nc3cc(N4CCC(O)CC4)ccn3)c21` [I-324, 7-((4-(4-hydroxy-piperidin-1-yl)pyridin-2-yl)amino)-4-(imidazo[1,2-a]pyrazin-3-yl)isoindolin-1-one], the IC50 is > 1000 nM.

Regarding `CN1C[C@@H](c2ccc(Nc3ccc(-c4cnc5cnccn45)c4c3C(=O)NC4)nc2)CCC1=O` [I-325, (R)-4-(imidazo[1,2-a]pyrazin-3-yl)-7-((5-(1-methyl-6-oxopiperidin-3-yl)pyridin-2-yl)amino)isoin-dolin-1-one], the IC50 is < 100 nM.

`CN1C[C@H](c2ccc(Nc3ccc(-c4cnc5cnccn45)c4c3C(=O)NC4)nc2)CCC1=O` [I-326, (S)-4-(imidazo[1,2-a]pyrazin-3-yl)-7-((5-(1-methyl-6-oxopiperidin-3-yl)pyridin-2-yl)amino)isoin-dolin-1-one]: the IC50 is < 100 nM. Consider `CN1CCN(c2cccc(Nc3cnc(-c4ccnc5c4ccn5C)c4c3C(=O)NC4)n2)CC1` [I-327, 4-(1-methyl-1H-pyrrolo[2,3-b]pyridin-4-yl)-7-((6-(4-methylpiperazin-1-yl)pyridin-2-yl)amino)-2,3-dihydro-1H-pyrrolo[3,4-c]pyridin-1-one], for which the concentration for half-maximal inhibition (IC50) was < 100 nM. Turning to `O=C1NCc2c(-c3cnc4cnccn34)ccc(Nc3ccc(N4CCC[C@H](O)CC4)cn3)c21` [I-328, (S)-7-((5-(4-hydroxyazepan-1-yl)pyridin-2-yl)amino)-4-(imidazo[1,2-a]pyrazin-3-yl)isoindolin-1-one], the IC50 is < 100 nM.

Turning to `O=C1NCc2c(-c3cnc4cnccn34)ccc(Nc3ccc(N4CCC[C@@H](O)CC4)cn3)c21` [I-329, (R)-7-((5-(4-hydroxyaze-pan-1-yl)pyridin-2-yl)amino)-4-(imidazol[1,2-a]pyrazin-3-yl)isoindolin-1-one], the IC50 is < 100 nM.

(Values after patent publication US11021481B2, “Substituted isoindolin-1-ones and 2,3-dihydro-1h-pyrrolo[3,4-c]pyridin-1-ones as HPK1 antagonists” (Nimbus Saturn, Inc., priority 2019, dated 2021).)
